US7883715B2, “Pesticide compositions containing dicarboxylic acids” (Monsanto Technology LLC, priority 2002, dated 2011)
Read-outs that look alike come from different tables or passages of the source.

What was measured:
[1] = test system: ABUTH; experiment: Greenhouse herbicidal effectiveness, ABUTH; format: in vivo, velvetleaf; details: for inhibition at 2 g/ha / inhibition at 3 g/ha / inhibition at 4 g/ha / inhibition at 5 g/ha: Abutilon theophrasti; for efficacy ABUTH: Table 19A, 16 days after treatment
From the text: (§1) The following greenhouse testing procedure was used for evaluating compositions of the Examples to determine herbicidal effectiveness, except where otherwise indicated.
(§2) Seeds of the plant species indicated were planted in 88 mm square pots in a soil mix which was previously sterilized and prefertilized with a 14-14-14 NPK slow release fertilizer at a rate of 3.6 kg/m3. The pots were placed in a greenhouse with sub-irrigation. About one week after emergence, seedlings were thinned as needed, including removal of any unhealthy or abnormal plants, to create a uniform series of test pots.
(§3) The plants were maintained for the duration of the test in the greenhouse where they received a minimum of 14 hours of light per day. […] Exposure temperatures were not precisely controlled but averaged about 29° C. during the day and about 21° C. during the night. Plants were sub-irrigated throughout the test to ensure adequate soil moisture levels.
(§4) Pots were assigned to different treatments in a fully randomized experimental design with 6 replications. A set of pots was left untreated as a reference against which affects of the treatments could later be evaluated.
(§5) Application of glyphosate compositions was made by spraying with a track sprayer fitted with a 9501E nozzle calibrated to deliver a spray volume of 93 liters per hectare (l/ha) at a pressure of 165 kilopascals (kPa). After treatment, pots were returned to the greenhouse until ready for evaluation.
(§6) Treatments were made using dilute aqueous compositions. These could be prepared as spray compositions directly from their ingredients, or by dilution with water of preformulated concentrate compositions.
(§7) For evaluation of herbicidal effectiveness, all plants in the test were examined by a single practiced technician, who recorded percent control, a visual measurement of the effectiveness of each treatment by comparison with untreated plants. […] The reported % control values represent the average for all replicates of each treatment.

[2] = molecular target: T1, EPSPS enzyme (Escherichia coli, UniProt P0A6D3); experiment: Enzyme studies of EPSPS inhibition; format: biochemical; details: oxalic acid without glyphosate
T1 sequence (P0A6D3 1-427): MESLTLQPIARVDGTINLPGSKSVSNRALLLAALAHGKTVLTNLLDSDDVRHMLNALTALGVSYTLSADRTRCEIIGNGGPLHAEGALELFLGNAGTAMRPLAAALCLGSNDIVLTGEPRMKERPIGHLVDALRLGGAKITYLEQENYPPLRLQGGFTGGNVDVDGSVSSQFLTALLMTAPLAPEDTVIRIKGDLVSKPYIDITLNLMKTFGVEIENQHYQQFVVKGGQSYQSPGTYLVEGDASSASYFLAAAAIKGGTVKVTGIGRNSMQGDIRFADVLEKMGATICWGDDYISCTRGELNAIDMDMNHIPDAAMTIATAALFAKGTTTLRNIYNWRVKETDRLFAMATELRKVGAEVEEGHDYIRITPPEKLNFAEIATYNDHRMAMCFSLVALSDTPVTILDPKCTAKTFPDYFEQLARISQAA
From the text: It has been discovered that oxalic acid and derivatives thereof enhance the pesticidal activity of a pesticide by acting as either an allosteric or cooperative effecter of the inhibition of the target enzyme 5-enolpyruvylishikimate-3-phosphate synthase (hereinafter referred to as EPSP synthase or EPSPS). For example, oxalic acid increases the inhibition of EPSPS enzyme by glyphosate to enhance the physiological response of plants at the enzyme level. […] In other words, the oxalic acid is absorbed and systemically transported throughout the plant.
Glyphosate inhibits the shikimic acid pathway which leads to the biosynthesis of aromatic compounds including amino acids, plant hormones and vitamins. Specifically, glyphosate curbs the conversion of phosphoenolpyruvic acid (PEP) and 3-phosphoshikimic acid to 5-enolpyruvyl-3-phosphoshikimic acid by inhibiting the EPSPS enzyme. It is believed that oxalic acid and other dicarboxylic acids enhance the binding efficiency of glyphosate to the S3P-EPSPS complex, resulting in a whole plant response to the oxalate at a given glyphosate concentration. […] This would lower the Kd of the S3P-EPSPS-glyphosate ternary complex. Data reported in the literature from x-ray crystallography have clearly identified the 427 amino acid side chains. […]

[3] = test system: plants; experiment: Whole plant response to oxalic acid by itself; format: in vivo; details: enzyme studies and whole plant response
From the text: Glyphosate inhibits the shikimic acid pathway which leads to the biosynthesis of aromatic compounds including amino acids, plant hormones and vitamins. Specifically, glyphosate curbs the conversion of phosphoenolpyruvic acid (PEP) and 3-phosphoshikimic acid to 5-enolpyruvyl-3-phosphoshikimic acid by inhibiting the EPSPS enzyme. It is believed that oxalic acid and other dicarboxylic acids enhance the binding efficiency of glyphosate to the S3P-EPSPS complex, resulting in a whole plant response to the oxalate at a given glyphosate concentration. […] This would lower the Kd of the S3P-EPSPS-glyphosate ternary complex. Data reported in the literature from x-ray crystallography have clearly identified the 427 amino acid side chains. Each of the six α-helices in the top domain and four of the six α-helices in the lower domain are capped with basic amino acid residues. Electrostatic interaction of a dicarboxylic acid or other compound of the proper stearic requirement with these basic amino acid residues on the surface of the two domains of the enzyme are believed to produce a stapling action. Such stapling action is possible only on at least a partially closed conformation of the ternary complex of S3P-EPSPS-glyphosate. […] Any compound with stapling action to close the ternary complex tighter, thereby enhancing the inhibition of the enzyme is a suitable enhancer component of the invention.

[4] = test system: ECHCF; experiment: Greenhouse herbicidal effectiveness, ECHCF; format: in vivo, Japanese millet, barnyardgrass; details: Table 19A, 16 days after treatment
From the text: as §1, §2, §3, §4, §5, §6, §7

[5] = test system: TRZVX; experiment: Greenhouse herbicidal effectiveness, TRZVX; format: in vivo, wheat; details: Table 19A, 16 days after treatment
From the text: as §1, §2, §3, §4, §5, §6, §7

[6] = 30 g a.e./ha, tank mix OTH1 1 % v/v
[7] = 70 g a.e./ha, tank mix OTH1 1 % v/v
[8] = 100 g a.e./ha, tank mix OTH1 1 % v/v
[9] = 200 g a.e./ha, tank mix OTH1 1 % v/v
[10] = 1 g a.e./ha, tank mix OTH1 1 % v/v
[11] = 3 g a.e./ha, tank mix OTH1 1 % v/v
[12] = 5 g a.e./ha, tank mix OTH1 1 % v/v
[13] = 10 g a.e./ha, tank mix OTH1 1 % v/v

O=C(O)C(=O)O [oxalic acid, Oxalic Acid]
inhibition at 2 g/ha ([1]; 336 h, read-out: % inhibition ABUTH (14 DAT), oxalate/oxalic acid alone, 2 g a.e./ha, 14 DAT, Table 44A): 0%
inhibition at 3 g/ha ([1]; 336 h, read-out: % inhibition ABUTH (14 DAT), oxalate/oxalic acid alone, 3 g a.e./ha, 14 DAT, Table 44A): 0%
inhibition at 4 g/ha ([1]; 336 h, read-out: % inhibition ABUTH (14 DAT), oxalate/oxalic acid alone, 4 g a.e./ha, 14 DAT, Table 44A): 0%
inhibition at 5 g/ha ([1]; 336 h, read-out: % inhibition ABUTH (14 DAT), oxalate/oxalic acid alone, 5 g a.e./ha, 14 DAT, Table 44A): 0%
inhibition at 2 g/ha ([1]; 480 h, read-out: % inhibition ABUTH (20 DAT), oxalate/oxalic acid alone, 2 g a.e./ha, 20 DAT, Table 44A): 0%
inhibition at 3 g/ha ([1]; 480 h, read-out: % inhibition ABUTH (20 DAT), oxalate/oxalic acid alone, 3 g a.e./ha, 20 DAT, Table 44A): 0%
inhibition at 4 g/ha ([1]; 480 h, read-out: % inhibition ABUTH (20 DAT), oxalate/oxalic acid alone, 4 g a.e./ha, 20 DAT, Table 44A): 0%
inhibition at 5 g/ha ([1]; 480 h, read-out: % inhibition ABUTH (20 DAT), oxalate/oxalic acid alone, 5 g a.e./ha, 20 DAT, Table 44A): 0%
inhibitory effect on the EPSPS enzyme per se [2]: do not have any inhibitory effect on the enzyme per se
herbicidal property by itself [3]: does not have any herbicidal property

C[C@@H](Oc1ccc(Oc2ccc(C(F)(F)F)cn2)cc1)C(=O)O [fluazifop-p]
efficacy ABUTH ([1]; 30 g a.e./ha, no OTH1): 0, 0, 0, 0
efficacy ABUTH [1, 6]: 0, 0, 0, 0
efficacy ABUTH ([1]; 70 g a.e./ha, no OTH1): 0, 0, 0, 0
efficacy ABUTH [1, 7]: 0, 0, 0, 0
efficacy ABUTH ([1]; 100 g a.e./ha, no OTH1): 0, 0, 0, 0
efficacy ABUTH [1, 8]: 0, 0, 0, 0
efficacy ABUTH ([1]; 200 g a.e./ha, no OTH1): 0, 0, 0, 0
efficacy ABUTH [1, 9]: 0, 0, 0, 0
efficacy ECHCF ([4]; 30 g a.e./ha, no OTH1): 98
efficacy ECHCF [4, 6]: 97
efficacy ECHCF ([4]; 70 g a.e./ha, no OTH1): 100
efficacy ECHCF [4, 7]: 100
efficacy ECHCF ([4]; 100 g a.e./ha, no OTH1): 100
efficacy ECHCF [4, 8]: 100
efficacy ECHCF ([4]; 200 g a.e./ha, no OTH1): 100
efficacy ECHCF [4, 9]: 100
efficacy TRZVX ([5]; 30 g a.e./ha, no OTH1): 70
efficacy TRZVX [5, 6]: 73
efficacy TRZVX ([5]; 70 g a.e./ha, no OTH1): 85
efficacy TRZVX [5, 7]: 83
efficacy TRZVX ([5]; 100 g a.e./ha, no OTH1): 91
efficacy TRZVX [5, 8]: 93
efficacy TRZVX ([5]; 200 g a.e./ha, no OTH1): 97
efficacy TRZVX [5, 9]: 98

CCc1cnc(C2=NC(C)(C(C)C)C(=O)N2)c(C(=O)O)c1 (stereo not shown) [imazethapyr]
efficacy ABUTH ([1]; 30 g a.e./ha, no OTH1): 73
efficacy ABUTH [1, 6]: 72
efficacy ABUTH ([1]; 70 g a.e./ha, no OTH1): 80
efficacy ABUTH [1, 7]: 81
efficacy ABUTH ([1]; 100 g a.e./ha, no OTH1): 82
efficacy ABUTH [1, 8]: 85
efficacy ABUTH ([1]; 200 g a.e./ha, no OTH1): 85
efficacy ABUTH [1, 9]: 89
efficacy ECHCF ([4]; 30 g a.e./ha, no OTH1): 68
efficacy ECHCF [4, 6]: 66
efficacy ECHCF ([4]; 70 g a.e./ha, no OTH1): 72
efficacy ECHCF [4, 7]: 71
efficacy ECHCF ([4]; 100 g a.e./ha, no OTH1): 75
efficacy ECHCF [4, 8]: 74
efficacy ECHCF ([4]; 200 g a.e./ha, no OTH1): 87
efficacy ECHCF [4, 9]: 80
efficacy TRZVX ([5]; 30 g a.e./ha, no OTH1): 14
efficacy TRZVX [5, 6]: 25
efficacy TRZVX ([5]; 70 g a.e./ha, no OTH1): 41
efficacy TRZVX [5, 7]: 33
efficacy TRZVX ([5]; 100 g a.e./ha, no OTH1): 52
efficacy TRZVX [5, 8]: 50
efficacy TRZVX ([5]; 200 g a.e./ha, no OTH1): 73
efficacy TRZVX [5, 9]: 67

COc1cc(OC)nc(NC(=O)NS(=O)(=O)c2ncccc2C(=O)N(C)C)n1 [nicosulfuron]
efficacy ABUTH ([1]; 1 g a.e./ha, no OTH1): 0.8
efficacy ABUTH [1, 10]: 6
efficacy ABUTH ([1]; 3 g a.e./ha, no OTH1): 12
efficacy ABUTH [1, 11]: 8
efficacy ABUTH ([1]; 5 g a.e./ha, no OTH1): 14
efficacy ABUTH [1, 12]: 10
efficacy ABUTH ([1]; 10 g a.e./ha, no OTH1): 28
efficacy ABUTH [1, 13]: 58
efficacy ECHCF ([4]; 1 g a.e./ha, no OTH1): 0.8
efficacy ECHCF [4, 10]: 4
efficacy ECHCF ([4]; 3 g a.e./ha, no OTH1): 13
efficacy ECHCF [4, 11]: 10
efficacy ECHCF ([4]; 5 g a.e./ha, no OTH1): 40
efficacy ECHCF [4, 12]: 37
efficacy ECHCF ([4]; 10 g a.e./ha, no OTH1): 51
efficacy ECHCF [4, 13]: 42
efficacy TRZVX ([5]; 1 g a.e./ha, no OTH1): 5
efficacy TRZVX [5, 10]: 3
efficacy TRZVX ([5]; 3 g a.e./ha, no OTH1): 15
efficacy TRZVX [5, 11]: 25
efficacy TRZVX ([5]; 5 g a.e./ha, no OTH1): 50
efficacy TRZVX [5, 12]: 47
efficacy TRZVX ([5]; 10 g a.e./ha, no OTH1): 65
efficacy TRZVX [5, 13]: 67
